Measured values taken from patent US20230372364A1, “METHOD OF TREATING GABA MEDIATED DISORDERS” (Eliem Therapeutics (UK) Ltd, priority 2020, published 2023).

Target: T1, CYP2C8 (Homo sapiens, UniProt P10632)
T1 construct: from tissue; host or cells: human volunteers in vivo (endogenous, mainly hepatic, enzyme: own knowledge)
T1 sequence (P10632 1-490): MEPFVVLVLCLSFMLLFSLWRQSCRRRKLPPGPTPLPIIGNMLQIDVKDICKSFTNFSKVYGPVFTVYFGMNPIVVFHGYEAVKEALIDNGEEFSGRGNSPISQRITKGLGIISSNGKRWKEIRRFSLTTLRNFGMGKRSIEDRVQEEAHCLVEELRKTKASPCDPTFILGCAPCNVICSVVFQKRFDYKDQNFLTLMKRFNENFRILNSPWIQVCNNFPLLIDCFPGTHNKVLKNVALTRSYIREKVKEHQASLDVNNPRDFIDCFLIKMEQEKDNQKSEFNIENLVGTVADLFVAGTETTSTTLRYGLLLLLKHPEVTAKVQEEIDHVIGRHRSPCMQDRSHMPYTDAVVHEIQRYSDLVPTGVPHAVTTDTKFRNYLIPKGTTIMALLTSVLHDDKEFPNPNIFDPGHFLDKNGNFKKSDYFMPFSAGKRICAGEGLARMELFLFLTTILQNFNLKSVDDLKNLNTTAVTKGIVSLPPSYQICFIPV
Assay: Repaglinide drug-drug interaction in humans
Format: in vivo
Details: repaglinide exposure after 14 day repeat doses

C[C@@]1(O)CC[C@@]2(C)[C@@H](CC[C@@H]3[C@@H]2CC[C@]2(C)[C@@H](C(=O)Cn4cc(C#N)cn4)CC[C@@H]32)C1 [CV-10155, 1-[2-[(3R,5S,8R,9S,10S,13S,14S,17S)-3-hydroxy-3,10,13-trimethyl-1,2,4,5,6,7,8,9,11,12,14,15,16,17-tetradecahydrocyclopenta[a]phenanthren-17-yl]-2-oxoethyl]pyrazole-4-carbonitrile]
DDI inhibitory effect at CYP2C8 level: no or minimal DDI inhibitory effect
